Reference: PMC9606171, “Synthetic PPAR Agonist DTMB Alleviates Alzheimer’s Disease Pathology by Inhibition of Chronic Microglial Inflammation in 5xFAD Mice” (Neurotherapeutics, 2022)

Key:
[1] = target: T1, PPARδ (Homo sapiens, UniProt Q03181); assay: Gal4-transactivation luciferase assay in HEK293A cells, PPARδ LBD; assay type: cell-based
T1 construct: pcDNA5-GAL4-PPAR LBD, pG5-luc, and Rluc vector (as control) were transfected into HEK293A cells; expressed in transfected cells; host or cells: HEK293A
T1 sequence (Q03181 211-439 limits assumed): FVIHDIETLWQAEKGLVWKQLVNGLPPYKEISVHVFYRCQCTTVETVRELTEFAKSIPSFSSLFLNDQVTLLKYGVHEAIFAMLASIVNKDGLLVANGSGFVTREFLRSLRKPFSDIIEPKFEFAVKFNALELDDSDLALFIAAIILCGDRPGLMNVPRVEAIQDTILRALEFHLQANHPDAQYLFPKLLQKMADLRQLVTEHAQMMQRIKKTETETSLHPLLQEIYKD
Description: HEK293A cells were transfected with the GAL4-reporter plasmids and pGL4.74 (Promega, Madison, WI, USA) as an internal standard through electroporation using a Neon Transfection System (Invitrogen, Carlsbad, CA, USA). All vector materials were provided by Professor Yuichiro Kanno at Toho University. Cells were treated with DTMB and each positive control compound for 24 h after overnight incubation. Cells were then harvested and resuspended in luciferase lysis buffer (Promega), followed by incubation on ice for 10 min. Cell debris was removed by centrifugation at 20,000 × g at 4 °C for 10 min, and the supernatants were used for luciferase assay. Using a dual-luciferase reporter assay system (Promega), luciferase activities were measured according to the manufacturer’s instructions. Experimental firefly luciferase activities were normalized against those of Renilla luciferase.

[2] = tested on: primary microglia; assay: Western blot of NF-κB, NLRP3 and ASC in primary microglia; assay type: cell-based, mice; details: DTMB 25 µM, 24 h
Description: Primary microglia culture was conducted as described in a previous study. Mice at postnatal day 3 mice were used for the preparation of primary microglia. Newborn mice pups were anesthetized in ice and then sacrificed. Isolated cortex and hippocampus were collected after removing the meninges. Brain tissues were dissociated by incubating in HBSS (Gibco, Gaithersburg, MD, USA) with trypsin (2.5%) for 15 min. Cell homogenates were then incubated in M-CSF (20 ng/mL, R&D Systems) supplemented with DMEM-F12 medium with 10% fetal bovine serum, 10% horse serum, 1% GlutaMAX (Gibco, MD, USA), and 1% penicillin/streptomycin (Welgene, Korea). After 10 days, microglia were purified through shaking at 260 rpm for 2 h.
Cells were lysed with lysis buffer containing 50 mM Tris (pH 7.4), 140 mM NaCl, 5 mM EDTA, and a protease inhibitor tablet, followed by sonication. Lysate protein concentrations were determined using Bradford reagents (AMERSCO, MA, USA). Proteins were resolved by sodium dodecyl sulfate (SDS) polyacrylamide gel electrophoresis, transferred to nitrocellulose membranes (Pall Corporation, New York, NY, USA), and incubated with blocking buffer (5% nonfat dry milk in TBS and 0.1% Tween 20) for 30 min. Western blot analyses were performed using primary antibodies against NF-κB, NLRP3, ASC, nicastrin, pen2 (Cell Signaling Technology, Danvers, MA, USA), Aph1 (Invitrogen), amyloid C-terminal fragment (Santa Cruz Biotechnology, Dallas, TX, USA), and GAPDH (Bethyl Laboratories, Mongomery, TX, USA). Secondary antibodies of rabbit (Promega), rat, and goat (Bethyl Laboratories) were used, and detection was performed with SUPEX ECL reagent (Neuronex, Korea) and an ImageQuant LAS-4000 (GE Healthcare, MA, USA), according to the manufacturer’s instructions. The integrated blot density was quantified through ImageJ.

[3] = tested on: 5xFAD mice; assay: Western blot and qPCR of APP and β-/γ-secretase in 5xFAD brain; assay type: in vivo; details: 10 mg/kg orally, 3 months
Description: (§1) DTMB was synthesized from Daejung Chemicals (Korea) and was dissolved in dimethyl sulfoxide (Sigma Aldrich, St. Louis, MO, USA) for cell-based experiments. To evaluate the effects of DTMB on 5xFAD mice, DTMB (10 mg/kg) and vehicle (1% carboxymethylcellulose and 10% DMSO) were orally administrated to four groups (wild-type, wild-type + DTMB, 5xFAD, and 5xFAD + DTMB) with a 6 day per week for 3 months.
Cells were lysed with lysis buffer containing 50 mM Tris (pH 7.4), 140 mM NaCl, 5 mM EDTA, and a protease inhibitor tablet, followed by sonication. Lysate protein concentrations were determined using Bradford reagents (AMERSCO, MA, USA). Proteins were resolved by sodium dodecyl sulfate (SDS) polyacrylamide gel electrophoresis, transferred to nitrocellulose membranes (Pall Corporation, New York, NY, USA), and incubated with blocking buffer (5% nonfat dry milk in TBS and 0.1% Tween 20) for 30 min. […] The integrated blot density was quantified through ImageJ.
Total RNA was isolated using TRI Reagent (Molecular Research Center, Cincinnati, OH, USA). […] For detection and quantification, a StepOnePlus Real-Time PCR System (Applied Biosystems, Foster City, CA, USA) was used with FastStart Universal SYBR Green Master (Roche, Basel, Switzerland). Real-time qPCR data were analyzed using the comparative CT method. […]

[4] = tested on: 5xFAD mice; assay: Bulk RNA-seq of hippocampus and cortex; assay type: in vivo
Description: as §1
RNA-seq libraries were prepared using the NEBNext® Ultra II Directional RNA Library Prep Kit for Illumina (BioLabs, MA, USA) and sequenced on Illumina HiSeq 2500 (San Diego, CA, USA). RNA-seq reads with adapter sequence were trimmed using cutadapt and aligned to the Mouse Ensemble Archive Release 100 by STAR [26]. Gene expression levels were quantified by RSEM [27]. Differential expression analysis was performed by DESeq2 [28], and functional enrichment of Gene ontology (GO) terms and pathways was estimated by Metascape. Pathway enrichment was estimated by GSEA [30] with the following options: “-metric log2_Ratio_of_Classes -permute gene_set.”

- relative luciferase activity ([1]; HEK293A, 24 h, various concentrations): increased luciferase activity
- transactivation activity (luciferase) compared to positive control ([1]; versus positive control): lower than the positive controls
Compound: COc1ccc(-c2cc(=O)oc3c(C)c(OC(=O)[C@H](Cc4c[nH]c5ccccc45)NC(=O)OC(C)(C)C)ccc23)cc1 [DTMB]
- protein level of ASC [2]: not changed
- protein level of NF-κB [2]: decreased
- protein level of NLRP3 [2]: decreased
- protein level of β-secretase ([3]; cortex): slightly decreased
- APP protein and mRNA level ([3]; hippocampus): neither changes
- gene expression level of Ece1 ([4]; hippocampus): significantly increased
- expression of neprilysin ([4]; hippocampus and cortex, not statistically significant (p-value is 0.27)): increased
